Read-outs that look alike come from different tables or passages of the source.
Tests used:
[1] = THC pharmacokinetics in wild-type and FABP1-KO mice (LC-MS/MS of brain and plasma); conditions: THC 10 mg/kg i.p.; for AUC: 0-24 h
Description: The pharmacokinetics of THC were subsequently examined to determine whether FABP1 regulates THC biotransformation in vivo. Wild-type and FABP1-KO mice were administered a single dose of THC (10 mg/kg, i.p.) and blood plasma and brains were harvested at several time points during a 24-hour time course (0, 0.5, 1, 2, 3, 4, 6, 7, and 24 hours post-THC). Levels of THC and its major primary and secondary metabolites (11-OH-THC and THC-COOH) were subsequently quantified by LC-MS/MS.
Mice were administered THC (10 mg/kg, i.p.) and plasma and brain samples were collected at the following time points: 0, 0.5, 1, 2, 3, 4, 6, 7, 24 hours. Tissues were immediately placed on dry ice and stored at −80 °C until processing. The AUC from time 0 to 24 h was calculated by the trapezoidal rule.
The tissues were rapidly thawed, spiked with 25 μl deuterated internal standard solution (containing THC-d3, 11-OH-THC-d3, and THC-COOH-d3; 5 ng/mL each, in methanol) (Cerillient Corporation, Round Rock, TX, USA) and homogenized on ice in Tris, pH 8.0. Protein precipitation was performed by adding two volumes ice-cold acetonitrile drop-wise while vortexing, centrifuged at 10,000 RCF for 10 minutes at 4 °C, and stored overnight at −20 °C to allow time for complete phase separation. The organic phase was transferred to a new glass tube and dried down under a steady stream of argon gas. The dried samples were resuspended in 100 μl 1:1 acetonitrile:ddH2O and submitted to the Stony Brook Proteomics Center for LC-MS/MS quantification of THC and THC metabolites.

human FABP1 [2] = target: T1, human FABP1 (Homo sapiens, UniProt P07148); experiment: DAUDA fluorescence displacement binding assay; conditions: for maximal displacement of the fluorescent probe DAUDA: maximal effect in the tested concentration range
T1 construct: His tag (N); host or cells: BL21(DE3) Escherichia coli
T1 sequence (P07148 1-127): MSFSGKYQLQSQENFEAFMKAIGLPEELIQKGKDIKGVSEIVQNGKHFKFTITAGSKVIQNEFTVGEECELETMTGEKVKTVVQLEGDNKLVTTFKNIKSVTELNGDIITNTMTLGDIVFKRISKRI
Description: Human FABP1 in a pNIC28-Bsa4 vector was obtained from Addgene (plasmid #42344; Addgene, Cambridge, MA, USA). Following sequence verification the construct was transformed into BL21(DE3) Escherichia coli for expression. The recombinant FABP1 protein was purified by nickel-affinity chromatography as described previously. Residual endogenous bacterial lipids were stripped from the purified protein by incubation in a column of hydroxyalkoxypropyl-dextran (Sigma Chemical Co., St Louis, MO, USA) for 1 hour at 37 °C.
Binding assays were carried out in 96-well Costar® plates (Corning Life Science, Kennebunk, ME, USA). FABP1 (3 μM) was incubated with DAUDA (500 nM), in binding assay buffer (30 mM Tris-HCl, 100 mM NaCl, pH 7.6). Competitor test compounds (0.1–500 μM) were then introduced to the well, mixed, and the system was allowed to equilibrate for 20 minutes at 25 °C in the dark. All experimental conditions were tested in triplicate. […] Loss of fluorescence intensity was monitored with an F5 Filtermax Multi-Mode Microplate Reader (Molecular Devices, Sunnyvale, CA, USA) using excitation/emission wavelengths = 345/535 nm. Following background subtraction, raw fluorescence intensity values were normalized and fit to a one-site competition binding analysis using the Graphpad Prism software.

human FABP1 [3] = target: T1, human FABP1; experiment: DAUDA probe saturation binding to FABP1 (probe Kd determination); conditions: FABP1 1 μM, DAUDA 0–16 μM
Description: Recombinant human FABP1 (1 μM) was titrated with DAUDA (0–16 μM). The raw fluorescence intensity at each data point was corrected by subtracting the signal from each respective probe concentration in the absence of protein. Kd and Bmax were then calculated by fitting the titration curve to the single-site saturation binding equation [Y = Bmax*X/(Kd + X)] using the GraphPad Prism software (Prism version 7.0 for Mac OS: Graphpad software Incorporated, La Jolla, CA, USA).

[4] = tested on: body temperature of wild-type and FABP1-KO mice; experiment: THC-induced hypothermia (implanted iButton Thermocron core temperature); type: in vivo, mouse; conditions: THC 10 mg/kg i.p.
Description: (§1) Hypothermia and spontaneous locomotor activity were assessed over a 12 hour period following a single intraperitoneal (i.p.) injection of 10 mg/kg THC or vehicle (1:1:18 DMSO:Cremophor-EL:saline) to naïve mice. This dose was selected because it produces submaximal cannabimimetic effects and potentiation of THC effects is unlikely to be hampered by a ceiling effect[33],[34]. All mice were kept on a 12/12 hour light/dark cycle and THC was administered immediately prior to the dark phase to control for circadian effects. […] Therefore, in the present study THC pharmacodynamics were independently assessed in mice of both genders.
Mice were anesthetized with an i.p. injection of a surgical mixture of ketamine (100 mg/kg) and xylazine (10 mg/kg). Thermocron iButton® (Dallas Semiconductor Company, Dallas, TX, USA) temperature data loggers were sterilized with 70% ethanol and surgically implanted into the abdominal cavities. The mice were permitted to recover from surgery for at least one week prior to being subjected to any experiments. The factory calibrated thermocrons were programmed to record temperature measurements every three minutes with 0.5 °C accuracy and 0.0625 °C precision.

[5] = tested on: locomotor activity of wild-type and FABP1-KO mice; experiment: Home-cage spontaneous locomotor activity (photobeam system); type: in vivo, mouse; conditions: THC 10 mg/kg i.p., 12 hour period, both sexes
Description: as §1
Locomotor activity was measured by the home-cage photobeam activity system (San Diego Instruments, San Diego, CA, USA). In this system each mouse home-cage was surrounded by a 4 × 8 photobeam array that detected and recorded movements in the X and Y directions. The animals were first conditioned to the cages in the testing room for one week to avoid novelty induced changes in locomotor activity. THC or vehicle were injected 10 minutes prior to the onset of the dark cycle and motility data was recorded over the next 12 hour period.

[6] = mouse, plasma, ip, 10 mg/kg, AUC, FABP1-KO mice
[7] = mouse, plasma, ip, 10 mg/kg, AUC, wild-type mice
[8] = mouse, plasma, ip, 10 mg/kg, Cmax, FABP1-KO mice
[9] = mouse, plasma, ip, 10 mg/kg, Cmax, wild-type mice

## CCCCCc1cc(O)c2c(c1)OC(C)(C)C1CCC(CO)=CC21 (stereo not shown) [11-OH-THC, 11-hydroxy-Δ^9-tetrahydrocannabinol]
[1]; brain and plasma
  time remaining at detectable levels longer in FABP1-KO than in wild-type: 1 to 2 h
[1]; brain, FABP1-KO mice
  Cmax: 243.6 ± 114.3 pmol/g
  M/P: metabolite to parent (THC) ratio (AUCm/AUCp): 0.169
  AUC: 1244 ± 314.6 pmol·h/g
[1]; brain, wild-type mice
  Cmax: 484.4 ± 207.8 pmol/g
  M/P: metabolite to parent (THC) ratio (AUCm/AUCp): 0.918
  AUC: 1327 ± 329.3 pmol·h/g
[1]; [6]
  AUC: 112 ± 18.4 ng·h/mL
[1]; [7]
  AUC: 59.4 ± 14.6 ng·h/mL
[1]; [8]
  Cmax: 50.6 ± 11.8 ng/mL
[1]; [9]
  Cmax: 29.5 ± 6.17 ng/mL
[1]; plasma, FABP1-KO mice
  M/P: metabolite to parent (THC) ratio (AUCm/AUCp): 0.0044
[1]; plasma, wild-type mice
  M/P: metabolite to parent (THC) ratio (AUCm/AUCp): 0.0052
Human FABP1 [2]
  Ki: 7.12 ± 0.79 µM

## CCCCCCC(C)(C)c1cc(O)c2c(c1)OC(C)(C)[C@@H]1CC=C(C(=O)O)C[C@@H]21 [AJA, ajulemic acid]
Human FABP1 [2]
  Ki: 26 ± 3.8 µM
  maximal displacement of the fluorescent probe DAUDA: fully displace DAUDA

## C=C(C)[C@@H]1CCC(C)=C[C@H]1c1c(O)cc(CCCCC)cc1O [CBD, cannabidiol]
Human FABP1 [2]; FABP1 3 μM, DAUDA 500 nM, 25 °C, 20 min, pH 7.6, read-out: Ki (DAUDA displacement from FABP1)
  Ki: 3.95 ± 0.65 µM
Human FABP1 [2]
  maximal displacement of the fluorescent probe DAUDA: ~50%

## CN(C)c1cccc2c(S(=O)(=O)NCCCCCCCCCCC(=O)O)cccc12 [DAUDA, 11-(Dansylamino)unadecanoic acid]
Human FABP1 [3]
  Kd: 1.07 ± 0.17 µM

## CCCCCCCCCCCCCCCC(=O)NCCO [PEA, Palmitoylethanolamide]
Human FABP1 [2]; at 50 µM
  remaining DAUDA fluorescence: 101.8 ± 3.3 % fluorescence

## CCCCCc1cc(O)c2c(c1)OC(C)(C)[C@@H]1CCC(C)=C[C@@H]21 [THC, ∆^9-tetrahydrocannabinol]
[1]; brain, FABP1-KO mice
  Cmax: 881.9 ± 574.1 pmol/g
  AUC: 7363 ± 949.0 pmol·h/g
[1]; brain
  increase in the brain AUC, FABP1-KO compared to WT: ~ 6 fold
[1]; brain, wild-type mice
  Cmax: 531.0 ± 71.35 pmol/g
  AUC: 1446 ± 411.7 pmol·h/g
[1]; [6]
  AUC: 25200 ± 7330 ng·h/mL
[1]; [7]
  AUC: 11500 ± 2080 ng·h/mL
[1]; [8]
  Cmax: 34800 ± 2000 ng/mL
[1]; [9]
  Cmax: 13600 ± 2620 ng/mL
Human FABP1 [2]
  Ki: 2.93 ± 0.27 µM
  maximal displacement of the fluorescent probe DAUDA: ~50%
[4]; FABP1-KO females
  maximum mean body temperature change: −8.1 °C
[4]; FABP1-KO males
  maximum mean body temperature change: −7.4 °C
[4]; WT females
  maximum mean body temperature change: −4.8 °C
[4]; WT males
  maximum mean body temperature change: −4.8 °C
[5]
  effect on spontaneous home-cage motility: significant decrease in overall motility

## CCCCCc1cc(O)c2c(c1)OC(C)(C)C1CCC(C(=O)O)=CC21 (stereo not shown) [THC-COOH, 11-nor-9-carboxy-Δ^9-tetrahydrocannabinol]
[1]; brain, FABP1-KO mice
  Cmax: 50.02 ± 3.16 pmol/g
  M/P: metabolite to parent (THC) ratio (AUCm/AUCp): 0.071
  AUC: 522.6 ± 194.4 pmol·h/g
[1]; brain
  lower THC-COOH/THC ratio (AUCTHC-COOH/AUCTHC) in FABP1-KO brains vs WT: 3–4 fold
  ∆tmax (later maximal level in FABP1-KO brain vs WT): 4 h
[1]; brain, wild-type mice
  Cmax: 58.33 ± 1.21 pmol/g
  M/P: metabolite to parent (THC) ratio (AUCm/AUCp): 0.251
  AUC: 362.8 ± 36.94 pmol·h/g
[1]; [6]
  AUC: 544 ± 21.2 ng·h/mL
[1]; [7]
  AUC: 506 ± 51.4 ng·h/mL
[1]; [8]
  Cmax: 78.7 ± 2.26 ng/mL
[1]; [9]
  Cmax: 87.1 ± 5.21 ng/mL
[1]; plasma, FABP1-KO mice
  M/P: metabolite to parent (THC) ratio (AUCm/AUCp): 0.0215
[1]; plasma, wild-type mice
  M/P: metabolite to parent (THC) ratio (AUCm/AUCp): 0.0440
Human FABP1 [2]
  Ki: 11.2 ± 0.7 µM

## CCCCCCCC/C=C\CCCCCCCC(=O)O [oleic acid]
Human FABP1 [2]; at 10 µM
  DAUDA displacement: 96.5 ± 0.15 % displacement
